Measurements from PubChem BioAssay (NCI).
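Assay format: 96-well plates, 48-hour exposure. TGI denotes the concentration required for complete inhibition of growth.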

Legend:
Test in all cases: NCI-60 cell line screen, 48 h
SN12C renal = test system: SN12C renal
MDA-MB-435 = test system: MDA-MB-435
LOX IMVI melanoma = test system: LOX IMVI melanoma
MCF7 breast = test system: MCF7 breast
U251 CNS = test system: U251 CNS
SK-MEL-5 melanoma = test system: SK-MEL-5 melanoma
SNB-75 CNS = test system: SNB-75 CNS
MDA-N = test system: MDA-N
MOLT-4 leukemia = test system: MOLT-4 leukemia
SW-620 colon = test system: SW-620 colon
OVCAR-8 ovarian = test system: OVCAR-8 ovarian
SR leukemia = test system: SR leukemia
SF-539 CNS = test system: SF-539 CNS
KM12 colon = test system: KM12 colon
IGROV1 ovarian = test system: IGROV1 ovarian
COLO 205 colon = test system: COLO 205 colon
NCI-H226 lung = test system: NCI-H226 lung
TK-10 renal = test system: TK-10 renal
SK-MEL-28 melanoma = test system: SK-MEL-28 melanoma
MDA-MB-231 breast = test system: MDA-MB-231 breast
OVCAR-5 ovarian = test system: OVCAR-5 ovarian
NCI/ADR-RES ovarian = test system: NCI/ADR-RES ovarian
HS 578T breast = test system: HS 578T breast
NCI-H460 lung = test system: NCI-H460 lung
OVCAR-3 ovarian = test system: OVCAR-3 ovarian
CCRF-CEM leukemia = test system: CCRF-CEM leukemia
HCC-2998 colon = test system: HCC-2998 colon
A549 NSCLC = test system: A549 NSCLC
SF-295 CNS = test system: SF-295 CNS
M14 melanoma = test system: M14 melanoma
SK-OV-3 ovarian = test system: SK-OV-3 ovarian
MALME-3M melanoma = test system: MALME-3M melanoma
RPMI-8226 leukemia = test system: RPMI-8226 leukemia
UACC-62 melanoma = test system: UACC-62 melanoma
HCT-116 colon = test system: HCT-116 colon
HCT-15 colon = test system: HCT-15 colon
EKVX NSCLC = test system: EKVX NSCLC
ACHN renal = test system: ACHN renal
T-47D breast = test system: T-47D breast
786-0 renal = test system: 786-0 renal
PC-3 prostate = test system: PC-3 prostate
DU-145 prostate = test system: DU-145 prostate
K-562 leukemia = test system: K-562 leukemia
HT29 colon = test system: HT29 colon
HOP-92 NSCLC = test system: HOP-92 NSCLC
HL-60(TB) leukemia = test system: HL-60(TB) leukemia
OVCAR-4 ovarian = test system: OVCAR-4 ovarian
NCI-H23 lung = test system: NCI-H23 lung
SF-268 CNS = test system: SF-268 CNS
UO-31 renal = test system: UO-31 renal
CAKI-1 renal = test system: CAKI-1 renal
HOP-62 NSCLC = test system: HOP-62 NSCLC
UACC-257 melanoma = test system: UACC-257 melanoma
RXF 393 renal = test system: RXF 393 renal
SNB-19 CNS = test system: SNB-19 CNS
NCI-H522 lung = test system: NCI-H522 lung
SK-MEL-2 melanoma = test system: SK-MEL-2 melanoma
A498 renal = test system: A498 renal

Cc1cc(C)c(OC(=O)Nc2cccc3ccccc23)c(-c2ccccc2)c1
TGI (SN12C renal): > 100 µM
TGI (MDA-MB-435): 82.2 µM
TGI (LOX IMVI melanoma): > 100 µM
TGI (MCF7 breast): > 100 µM
TGI (U251 CNS): > 100 µM
TGI (SK-MEL-5 melanoma): 34.6 µM
TGI (SNB-75 CNS): 47.4 µM
TGI (MDA-N): > 100 µM
TGI (MOLT-4 leukemia): 37.3 µM
TGI (SW-620 colon): > 100 µM
TGI (OVCAR-8 ovarian): > 100 µM
TGI (SR leukemia): > 100 µM
TGI (SF-539 CNS): > 100 µM
TGI (KM12 colon): > 100 µM
TGI (IGROV1 ovarian): > 100 µM
TGI (COLO 205 colon): > 100 µM
TGI (NCI-H226 lung): 58.4 µM
TGI (TK-10 renal): > 100 µM
TGI (SK-MEL-28 melanoma): > 100 µM
TGI (MDA-MB-231 breast): > 100 µM
TGI (OVCAR-5 ovarian): > 100 µM
TGI (NCI/ADR-RES ovarian): > 100 µM
TGI (HS 578T breast): > 100 µM
TGI (NCI-H460 lung): > 100 µM
TGI (OVCAR-3 ovarian): > 100 µM
TGI (CCRF-CEM leukemia): > 100 µM
TGI (HCC-2998 colon): 91.8 µM
TGI (A549 NSCLC): > 100 µM
TGI (SF-295 CNS): > 100 µM
TGI (M14 melanoma): > 100 µM
TGI (SK-OV-3 ovarian): > 100 µM
TGI (MALME-3M melanoma): > 100 µM
TGI (RPMI-8226 leukemia): > 100 µM
TGI (UACC-62 melanoma): > 100 µM
TGI (HCT-116 colon): > 100 µM
TGI (HCT-15 colon): > 100 µM
TGI (EKVX NSCLC): > 100 µM
TGI (ACHN renal): 94.9 µM
TGI (T-47D breast): > 100 µM
TGI (786-0 renal): > 100 µM
TGI (PC-3 prostate): > 100 µM
TGI (DU-145 prostate): > 100 µM
TGI (K-562 leukemia): > 100 µM
TGI (HT29 colon): > 100 µM
TGI (HOP-92 NSCLC): 78.6 µM
TGI (HL-60(TB) leukemia): > 100 µM
TGI (OVCAR-4 ovarian): > 100 µM
TGI (NCI-H23 lung): > 100 µM
TGI (SF-268 CNS): 80.1 µM
TGI (UO-31 renal): 26.8 µM
TGI (CAKI-1 renal): 93 µM
TGI (HOP-62 NSCLC): > 100 µM

COc1ccc(C2C=C(c3ccccc3)Nc3nnnn32)cc1 (stereo unspecified)
TGI (SN12C renal): > 100 µM
TGI (MDA-MB-435): > 100 µM
TGI (UACC-257 melanoma): > 100 µM
TGI (LOX IMVI melanoma): > 100 µM
TGI (MCF7 breast): 84.4 µM
TGI (U251 CNS): 56.1 µM
TGI (SK-MEL-5 melanoma): > 100 µM
TGI (MDA-N): > 100 µM
TGI (MOLT-4 leukemia): > 100 µM
TGI (SW-620 colon): > 100 µM
TGI (OVCAR-8 ovarian): > 100 µM
TGI (SR leukemia): > 100 µM
TGI (SF-539 CNS): 53.1 µM
TGI (KM12 colon): 34.8 µM
TGI (IGROV1 ovarian): > 100 µM
TGI (COLO 205 colon): > 100 µM
TGI (NCI-H226 lung): > 100 µM
TGI (TK-10 renal): 29.8 µM
TGI (MDA-MB-231 breast): 90.5 µM
TGI (OVCAR-5 ovarian): > 100 µM
TGI (NCI/ADR-RES ovarian): > 100 µM
TGI (HS 578T breast): > 100 µM
TGI (RXF 393 renal): 50.9 µM
TGI (NCI-H460 lung): > 100 µM
TGI (OVCAR-3 ovarian): 77.8 µM
TGI (SNB-19 CNS): > 100 µM
TGI (CCRF-CEM leukemia): > 100 µM
TGI (A549 NSCLC): > 100 µM
TGI (SF-295 CNS): 88.3 µM
TGI (M14 melanoma): > 100 µM
TGI (SK-OV-3 ovarian): 93 µM
TGI (RPMI-8226 leukemia): 80.2 µM
TGI (UACC-62 melanoma): > 100 µM
TGI (HCT-116 colon): 29.3 µM
TGI (HCT-15 colon): > 100 µM
TGI (ACHN renal): 60.3 µM
TGI (T-47D breast): 60.4 µM
TGI (786-0 renal): 91.1 µM
TGI (NCI-H522 lung): 57.7 µM
TGI (PC-3 prostate): > 100 µM
TGI (DU-145 prostate): > 100 µM
TGI (SK-MEL-2 melanoma): > 100 µM
TGI (K-562 leukemia): > 100 µM
TGI (HT29 colon): 34.2 µM
TGI (A498 renal): > 100 µM
TGI (HL-60(TB) leukemia): > 100 µM
TGI (NCI-H23 lung): > 100 µM
TGI (SF-268 CNS): > 100 µM
TGI (UO-31 renal): > 100 µM
TGI (CAKI-1 renal): > 100 µM
TGI (HOP-62 NSCLC): 66.8 µM

Nc1nc2c(ncn2CC2CCC(CO)C2)c(=O)[nH]1 (stereo unspecified)
TGI (SN12C renal): > 100 µM
TGI (MDA-MB-435): > 100 µM
TGI (UACC-257 melanoma): > 100 µM
TGI (LOX IMVI melanoma): > 100 µM
TGI (MCF7 breast): > 100 µM
TGI (U251 CNS): > 100 µM
TGI (SK-MEL-5 melanoma): > 100 µM
TGI (SNB-75 CNS): > 100 µM
TGI (MDA-N): > 100 µM
TGI (SW-620 colon): > 100 µM
TGI (SF-539 CNS): > 100 µM
TGI (KM12 colon): > 100 µM
TGI (COLO 205 colon): > 100 µM
TGI (NCI-H226 lung): > 100 µM
TGI (TK-10 renal): > 100 µM
TGI (SK-MEL-28 melanoma): > 100 µM
TGI (MDA-MB-231 breast): > 100 µM
TGI (OVCAR-5 ovarian): > 100 µM
TGI (NCI/ADR-RES ovarian): > 100 µM
TGI (HS 578T breast): > 100 µM
TGI (RXF 393 renal): > 100 µM
TGI (OVCAR-3 ovarian): > 100 µM
TGI (SNB-19 CNS): > 100 µM
TGI (CCRF-CEM leukemia): > 100 µM
TGI (HCC-2998 colon): > 100 µM
TGI (A549 NSCLC): > 100 µM
TGI (SF-295 CNS): > 100 µM
TGI (M14 melanoma): > 100 µM
TGI (SK-OV-3 ovarian): > 100 µM
TGI (RPMI-8226 leukemia): > 100 µM
TGI (UACC-62 melanoma): > 100 µM
TGI (HCT-116 colon): > 100 µM
TGI (HCT-15 colon): > 100 µM
TGI (EKVX NSCLC): > 100 µM
TGI (ACHN renal): > 100 µM
TGI (T-47D breast): > 100 µM
TGI (786-0 renal): > 100 µM
TGI (PC-3 prostate): > 100 µM
TGI (DU-145 prostate): > 100 µM
TGI (SK-MEL-2 melanoma): > 100 µM
TGI (K-562 leukemia): > 100 µM
TGI (HOP-92 NSCLC): > 100 µM
TGI (A498 renal): > 100 µM
TGI (OVCAR-4 ovarian): > 100 µM
TGI (SF-268 CNS): > 100 µM
TGI (UO-31 renal): > 100 µM
TGI (CAKI-1 renal): > 100 µM
TGI (HOP-62 NSCLC): > 100 µM
